# Experimental data: patent publication US20110071094A1, “(D)-ALLOSE INDUCING PROGRAMMED CELL DEATH IN HORMONE REFRACTORY PROSTATE CANCER LINES” (INDUSTRY-ACADEMIC COOPERATION FOUDATION, GYEONGSANG …, priority 2008, published 2011)
# Assays:
# PrEC cell line [1] = assay: Cell viability / cell growth, MTT assay; assay type: cell-based; conditions: human NPE cell line PrEC, 0-40 mM
# Method: DU145 (human HRPC cell line, derived from a patient with brain metastasis) and PrEC (human normal prostate epithelial cell line) cell lines were obtained from Korea Cell Line Bank (KCLB, Seoul, South Korea). DU145 and PrEC cell lines were grown in triplicate culture plates containing RPMI-1640 (HyClone, Logan, Utah, USA) and Dulbecco's Modified Eagle's Medium (HyClone, Logan, Utah, USA) respectively, and kept in a humidified atmosphere containing 5% CO2 at 37° C. for 72 h. The media were supplemented with 10% heat-inactivated fetal bovine serum (HyClone, Logan, Utah, USA), 1% antibio-antimicotic solution containing 10,000 units/ml of penicillin and 10 mg/ml of streptomycin (HyClone, Logan, Utah, USA), HEPES, sodium bicarbonate, p-aminobenzoic acid and insulin (complete culture media). […]
# The logarithmic growth phase of DU145 and PrEC cell lines were taken for growth assay using 3-[4,5-dimethylthiazol-2-yl]-2,5-diphenyl tetrazolium bromide (MTT). […] After incubation for the specified time at 37° C. in a humidified 5% CO2 incubator, cell viability was determined. […] To achieve solubilization of formazan crystal formed in viable cells, DMSO was added to each well, and the absorbance was recorded on a microplate reader at 595 nm wavelength. The effect of sugars on growth inhibition was assessed as percent cell viability where control cells were taken as 100% viable.
# DU145 cell line [2] = assay: Apoptotic indices by DAPI staining, confocal microscopy; assay type: cell-based, human; conditions: DU145, 24, 48 and 72 h
# Method: (§1) The Annexin-V-FLUOS Staining Kit (Roche Diagnostics GmbH, Mannheim, Germany) was used for the detection and quantification of the apoptotic cells. This kit uses a dual-staining protocol in which the apoptotic cells are stained with annexin-V (green fluorescence) and the necrotic cells are stained with propidium iodide (PI, red fluorescence). Briefly, DU145 cell line was grown at a density of 1×10^6 cells in triplicate culture plates and then treated with D-allose (0, 20 and 40 mM) for 48 and 72 h. The cells were treated with trypsin and harvested with PBS and processed for labeling with annexin-V and PI by the use of the kit according to the manufacturer's protocol. The fluorescence was measured by flow cytometric analysis, performed on a FACSCalibur (Becton Dickinson, San Jose, Calif., USA) using 488 nm excitation and a 515 nm band pass filter for fluorescein detection and a filter [600 nm for PI detection (FL1: Annexin-V-FLUOS; FL2: PI). Further, apoptotic indices were measured by analysis of fragmented or scattered nuclei and condensed chromosome as the stringent morphological criteria of apoptosis, detectable by confocal microscopy on cells stained with DNA-intercalating dye […] (DAPI). For this purpose, DU145 and PrEC cell lines were exposed to 0, 20 and 40 mM of D-allose for up to 72 h, stained with DAPI (1 μg/ml in methanol), mounted with Prolong Antifade reagent (Molecular Probes, Eugene, Oreg., USA), and images were acquired by use of a confocal laser scanning microscope (Fluoview FV 1000, Olympus, Japan). The numbers of apoptotic nuclei per 100 cells were counted from the five high power fields/slide and apoptotic indices were expressed as a percentage of the untreated controls in each cell line, considering the value as 100%. DU145 cell line was also treated with 0-40 mM of D-glucose for determination of apoptotic indices as mentioned above.
# PrEC cell line [3] = assay: as above; assay type: cell-based, human; conditions: PrEC, 24, 48 and 72 h
# Method: as §1
# DU145 cell line [4] = assay: Quantification of apoptosis by annexin-V/PI flow cytometry; assay type: cell-based, human
# Method: as §1
# Bcl-2 = assay: Western blot analysis of Bcl-2 protein in DU145; assay type: cell-based, human; conditions: DU145, 20 and 40 mM, 72 h
# Method: (§2) After 0, 20 and 40 mM of D-allose treatments for 72 h, DU145 cell line (1×10^6 cells in triplicate culture plates) was harvested into cell lysis buffer (Cell Signaling, Danvers, Mass., USA) supplemented with 1 mM PMSF. The cells were then sonicated, centrifuged and protein concentration was measured by Bradford assay with the Bio-Rad protein assay solution using bovine serum albumin (BSA) as standard. Proteins (30 μg) were separated on a 12.5% SDS-PAGE under reducing conditions and transferred onto a PVDF membrane (Santa Cruz Biotechnology, Santa Cruz, Calif., USA). Prestained protein marker, broad range: 6-175 kDa (New England Biolabs Inc., Ipswich, Mass., USA) run in parallel for detection of the molecular weights of the proteins. Membrane was blocked with 5% (w/v) skimmed milk in order to reduce non-specific binding and immunoblotting was performed using rabbit derived anti-Bcl-2, anti-Bax, anti-Caspase 3 and anti-PARP antibodies (1:500; Santa Cruz Biotechnology, Santa Cruz, Calif., USA). […] Membrane was probed with a goat derived horseradish peroxidase-conjugated anti-rabbit IgG (1:1000; Santa Cruz Biotechnology, Santa Cruz, Calif., USA), and proteins were detected by the enhanced chemiluminescence (ECL) detection system according to the vendor's protocol (Amersham Biosciences, Piscataway, N.J., USA) followed by X-ray exposure. […]
# Bax = assay: Western blot analysis of Bax protein in DU145; assay type: cell-based, human; conditions: DU145, 40 mM, 72 h
# Method: as §2
# caspase 3 = assay: Western blot analysis of caspase 3 protein in DU145; assay type: cell-based, human; conditions: DU145, 0, 20 and 40 mM, 72 h
# Method: as §2
# cyt C = assay: Mitochondrial cyt C release and nuclear morphology, immunofluorescence; assay type: cell-based, human; conditions: DU145, 20 and 40 mM, 48 h
# Method: The in situ analysis of cyt C was carried out by immunofluorescence technique. […] Cyt C was detected by using mouse anti-cyt C antibody and rabbit anti-mouse FITC-labeled antibody (1:250 and 1:200, respectively; Santa Cruz Biotechnology, Santa Cruz, Calif., USA). DU145 cell line treated with FITC-labeled secondary antibody alone was considered as negative control. Subsequently, chromatin was stained with PI (1 mg/ml in PBS) for 20 min in dark and slides were mounted with Prolong Antifade reagent (Molecular Probes, Eugene, Oreg., USA). Cyt C (green) and chromatin (red) staining patterns were acquired by use of a confocal laser scanning microscope (Fluoview FV 1000, Olympus, Japan).
smiles,measurement,setting,value
O=C[C@H](O)[C@H](O)[C@H](O)[C@H](O)CO [D-allose],effect on growth of PrEC cell line,PrEC cell line [1],no remarkable effect
same,"programmed cell death (apoptotic indices, DAPI staining)",DU145 cell line [2],significant dose- and time-dependent programmed cell death
same,"programmed cell death (apoptotic indices, DAPI staining)",PrEC cell line [3],very negligible effect
same,apoptotic cells (annexin-V/PI),"DU145 cell line [4]; DU145, 20 mM, 48 h, untreated control 1.2%",5.1%
same,apoptotic cells (annexin-V/PI),"DU145 cell line [4]; DU145, 20 mM, untreated control 2.3%",11.9%
same,apoptotic cells (annexin-V/PI),"DU145 cell line [4]; DU145, 40 mM, 48 h, untreated control 1.2%",8.7%
same,apoptotic cells (annexin-V/PI),"DU145 cell line [4]; DU145, 40 mM, untreated control 2.3%",23.5%
same,Bcl-2 protein expression,Bcl-2,significantly decreased
same,Bax protein expression,Bax,remarkably increased
same,cleaved caspase 3 product,caspase 3,concomitant increase
same,full length caspase 3 protein expression,caspase 3,remarkable dose-dependent decrease
same,cyt C release from mitochondria and chromatin condensation,cyt C,release of cyt C from mitochondria into cytosol and chromatin condensation
